Experimental data taken from patent publication US6013651A, “Meta-azacyclic amino benzoic acid compounds and derivatives thereof” (G. D. Searle & Co., priority 1998, dated 2000).
Where a name gives a salt, the structure may show the parent alone. Read-outs that look alike come from different tables or passages of the source.

Key:
[1] = molecular target: T1, human fibrinogen receptor (αIIb β3) (Homo sapiens, UniProt P05106+P08514); assay: Purified IIb/IIIa receptor assay, solid phase receptor assay (inhibition of biotinylated vitronectin binding); settings: 1 nM biotinylated human vitronectin, pH 7.4, 2 h competition
T1 construct: purified from outdated platelets; from tissue; host or cells: outdated human platelets
T1 sequence (P08514 32-887 limits assumed): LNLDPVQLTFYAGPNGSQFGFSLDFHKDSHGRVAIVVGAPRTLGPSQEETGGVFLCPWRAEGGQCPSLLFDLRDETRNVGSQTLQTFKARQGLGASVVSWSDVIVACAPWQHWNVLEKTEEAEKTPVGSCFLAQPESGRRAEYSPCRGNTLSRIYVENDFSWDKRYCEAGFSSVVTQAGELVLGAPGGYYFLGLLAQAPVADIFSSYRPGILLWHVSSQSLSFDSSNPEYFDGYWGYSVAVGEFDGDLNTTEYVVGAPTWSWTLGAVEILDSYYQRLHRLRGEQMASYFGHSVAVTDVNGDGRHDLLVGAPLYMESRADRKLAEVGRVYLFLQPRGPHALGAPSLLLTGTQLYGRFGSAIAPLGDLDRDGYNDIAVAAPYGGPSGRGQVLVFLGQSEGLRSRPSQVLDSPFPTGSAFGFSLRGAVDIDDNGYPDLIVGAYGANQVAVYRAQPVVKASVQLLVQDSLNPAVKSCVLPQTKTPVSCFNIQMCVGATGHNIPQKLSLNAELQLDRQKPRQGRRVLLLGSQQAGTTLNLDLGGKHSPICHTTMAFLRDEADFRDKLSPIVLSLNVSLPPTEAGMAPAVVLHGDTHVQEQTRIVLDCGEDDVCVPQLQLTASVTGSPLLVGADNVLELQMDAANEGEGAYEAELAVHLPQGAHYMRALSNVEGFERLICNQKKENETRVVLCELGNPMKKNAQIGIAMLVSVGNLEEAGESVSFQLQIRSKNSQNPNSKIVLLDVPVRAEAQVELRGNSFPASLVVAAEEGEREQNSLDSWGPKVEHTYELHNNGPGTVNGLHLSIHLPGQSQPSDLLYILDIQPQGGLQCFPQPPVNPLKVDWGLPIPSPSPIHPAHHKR
T1 sequence (P08514 891-1039 limits assumed): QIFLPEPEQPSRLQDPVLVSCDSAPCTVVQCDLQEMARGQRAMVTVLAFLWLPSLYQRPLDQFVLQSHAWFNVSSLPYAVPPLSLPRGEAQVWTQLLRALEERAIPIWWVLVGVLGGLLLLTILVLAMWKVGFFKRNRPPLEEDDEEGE
T1 sequence (P05106 27-788): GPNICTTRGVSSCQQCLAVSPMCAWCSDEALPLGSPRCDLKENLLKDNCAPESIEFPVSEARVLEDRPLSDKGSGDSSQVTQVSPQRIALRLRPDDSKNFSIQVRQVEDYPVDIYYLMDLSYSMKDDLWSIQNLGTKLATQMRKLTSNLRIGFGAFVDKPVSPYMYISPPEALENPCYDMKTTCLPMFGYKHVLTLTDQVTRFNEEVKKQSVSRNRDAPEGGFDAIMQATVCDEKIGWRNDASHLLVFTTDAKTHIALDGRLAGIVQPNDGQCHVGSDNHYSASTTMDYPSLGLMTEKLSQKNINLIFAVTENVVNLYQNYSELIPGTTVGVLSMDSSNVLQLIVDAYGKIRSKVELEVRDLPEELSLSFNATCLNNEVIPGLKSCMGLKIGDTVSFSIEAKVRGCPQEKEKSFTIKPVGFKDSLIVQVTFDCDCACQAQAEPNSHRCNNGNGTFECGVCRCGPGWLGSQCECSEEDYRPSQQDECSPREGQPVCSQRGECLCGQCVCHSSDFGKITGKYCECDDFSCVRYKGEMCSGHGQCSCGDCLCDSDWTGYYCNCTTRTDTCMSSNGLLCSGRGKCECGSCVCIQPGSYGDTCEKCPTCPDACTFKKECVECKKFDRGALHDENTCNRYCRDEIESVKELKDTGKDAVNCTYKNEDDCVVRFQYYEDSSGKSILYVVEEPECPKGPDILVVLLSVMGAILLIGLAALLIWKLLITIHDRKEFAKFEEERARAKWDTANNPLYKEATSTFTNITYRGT
Description: Human fibrinogen receptor (αIIb β3) was purified from outdated platelets. (Pytela, R., Pierschbacher, M. D., Argraves, S., Suzuki, S., and Rouslahti, E. "Arginine-Glycine-Aspartic acid adhesion receptors", Methods in Enzymology 144(1987):475-489.) Human vitronectin was purified from fresh frozen plasma as described in Yatohgo, T., Izumi, M., Kashiwagi, H., and Hayashi, M., "Novel purification of vitronectin from human plasma by heparin affinity chromatography," Cell Structure and Function 13(1988):281-292. Biotinylated human vitronectin was prepared by coupling NHS-biotin from Pierce Chemical Company (Rockford, Il.) to purified vitronectin as previously described. (Charo, I. F., Nannizzi, L., Phillips, D. R., Hsu, M. A., Scaround bottomorough, R. M., "Inhibition of fibrinogen binding to GP IIIb/IIIa by a GP IIIa peptide", J. Biol. Chem. 266(3)(1991): 1415-1421.) Assay buffer, OPD substrate tablets, and RIA grade BSA were obtained from Sigma (St. Louis, Mo.). Anti-biotin antibody was obtained from Calbiochem (La Jolla, Calif.). Linbro microtiter plates were obtained from Flow Labs (McLean, Va.). ADP reagent was obtained from Sigma (St. Louis, Mo.).
This assay is essentially the same reported in Niiya, K., Hodson, E., Bader, R., Byers-Ward, V. Koziol, J. A., Plow, E. F. and Ruggeri, Z. M., "Increased surface expression of the membrane glycoprotein IIb/IIIa complex induced by platelet activation: Relationships to the binding of fibrinogen and platelet aggregation", Blood 70(1987):475-483. The purified human fibrinogen receptor (αIIb β3) was diluted from stock solutions to 1.0 μg/mL in Tris-buffered saline containing 1.0 mM Ca^++, Mg^++, and Mn^++, pH 7.4 (TBS^+++). The diluted receptor was immediately transferred to Linbro microtiter plates at 100 μL/well (100 ng receptor/well). The plates were sealed and incubated overnight at 4° C. to allow the receptor to bind to the wells. All remaining steps were at room temperature. The assay plates were emptied and 200 μL of 1% RIA grade BSA in TBS^+++ (TBS^+++ /BSA) were added to block exposed plastic surfaces. Following a 2 hour incubation, the assay plates were washed with TBS^+++ using a 96 well plate washer. Logarithmic serial dilution of the test compound and controls were made starting at a stock concentration of 2 mM and using 2 nM biotinylated vitronectin in TBS^+++ /BSA as the diluent. This premixing of labeled ligand with test (or control) ligand, and subsequent transfer of 50 μL aliquots to the assay plate was carried out with a CETUS Propette robot; the final concentration of the labeled ligand was 1 nM and the highest concentration of test compound was 1.0×10^-4 M. The competition occurred for two hours after which all wells were washed with a plate washer as before. Affinity purified horseradish peroxidase labeled goat anti-biotin antibody was diluted 1:3000 in TBS^+++ /BSA and 125 μL were added to each well. After 30 minutes, the plates were washed and incubated with […]/H2 O2 substrate in 100 mM/L citrate buffer, pH 5.0. The plate was read with a microtiter plate reader at a wavelength of 450 nm and when the maximum-binding control wells reached an absoround bottomance of about 1.0, the final A450 were recorded for analysis. The data were analyzed using a macro written for use with the EXCEL™ spreadsheet program. The mean, standard deviation, and % CV were determined for duplicate concentrations. The mean A450 values were normalized to the mean of four maximum-binding controls (no competitor added)(B-MAX). The normalized values were subjected to a four parameter curve fit algorithm, [Robard et al., Int.

[2] = molecular target: T2, human vitronectin receptor (αv β3) (Homo sapiens, UniProt P05106+P06756); assay: Vitronectin adhesion assay, solid phase receptor assay (inhibition of biotinylated vitronectin binding to purified αvβ3)
T2 construct: purified from human placenta; from tissue; host or cells: human placenta
T2 sequence (P06756 31-889 limits assumed): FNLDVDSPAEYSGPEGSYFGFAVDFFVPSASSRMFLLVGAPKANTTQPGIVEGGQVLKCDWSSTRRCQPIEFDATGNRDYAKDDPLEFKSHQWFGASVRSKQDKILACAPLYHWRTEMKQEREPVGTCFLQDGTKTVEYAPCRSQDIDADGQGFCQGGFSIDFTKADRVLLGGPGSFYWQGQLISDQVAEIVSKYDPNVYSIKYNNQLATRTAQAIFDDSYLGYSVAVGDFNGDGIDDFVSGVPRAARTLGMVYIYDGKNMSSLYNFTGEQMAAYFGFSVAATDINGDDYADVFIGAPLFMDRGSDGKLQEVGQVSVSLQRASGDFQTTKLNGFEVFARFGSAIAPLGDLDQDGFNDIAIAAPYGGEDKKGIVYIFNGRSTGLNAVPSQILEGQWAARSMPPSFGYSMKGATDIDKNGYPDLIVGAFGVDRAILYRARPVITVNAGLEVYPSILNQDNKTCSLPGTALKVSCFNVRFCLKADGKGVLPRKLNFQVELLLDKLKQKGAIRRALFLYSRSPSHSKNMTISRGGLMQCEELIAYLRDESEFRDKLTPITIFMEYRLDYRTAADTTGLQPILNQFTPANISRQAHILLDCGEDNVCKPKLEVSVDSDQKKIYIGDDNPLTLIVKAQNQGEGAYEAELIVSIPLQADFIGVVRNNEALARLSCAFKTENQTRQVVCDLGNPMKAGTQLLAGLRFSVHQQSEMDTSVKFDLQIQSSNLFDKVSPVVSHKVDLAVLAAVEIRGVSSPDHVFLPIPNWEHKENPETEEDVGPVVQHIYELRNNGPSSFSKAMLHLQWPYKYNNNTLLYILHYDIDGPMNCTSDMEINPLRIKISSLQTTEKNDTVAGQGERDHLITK
T2 sequence (P06756 891-1048 limits assumed): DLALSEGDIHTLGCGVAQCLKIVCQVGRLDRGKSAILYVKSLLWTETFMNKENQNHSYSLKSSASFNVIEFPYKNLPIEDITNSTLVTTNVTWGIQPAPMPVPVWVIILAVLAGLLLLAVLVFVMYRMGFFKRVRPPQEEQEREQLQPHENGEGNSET
T2 sequence (P05106 27-788): as the sequence (P05106 27-788) above
Protocol: Human vitronectin receptor (αv β3) was purified from human placenta as previously described [Pytela et al., Methods in Enzymology, 144:475-489 (1987)]. Human vitronectin was purified from fresh frozen plasma as previously described [Yatohgo et al., Cell Structure and Function, 13:281-292 (1988)]. Biotinylated human vitronectin was prepared by coupling NHS-biotin from Pierce Chemical Company (Rockford, Ill.) to purified vitronectin as previously described [Charo et al., J. Biol. Chem., 266(3):1415-1421 (1991)]. Assay buffer, OPD substrate tablets, and RIA grade BSA were obtained from Sigma (St. Louis, Mo.). Anti-biotin antibody was obtained from Calbiochem (La Jolla, Calif.). Linbro microtiter plates were obtained from Flow Labs (McLean, Va.). ADP reagent was obtained from Sigma (St. Louis, Mo.).
This assay was essentially the same as previously reported [Niiya et al., Blood, 70:475-483 (1987)]. The purified human vitronectin receptor (αv β3) was diluted from stock solutions to […] in tris-buffered saline containing 1.0 mM Ca^++, Mg^++, and Mn^++, pH 7.4 (TBS^+++). The diluted receptor was immediately transferred to Linbro microtiter plates at 100 µL/well (100 ng receptor/well). The plates were sealed and incubated overnight at 4° C. to allow the receptor to bind to the wells. All remaining steps were at room temperature. The assay plates were emptied and 200 µL of 1% RIA grade BSA in TBS^+++ (TBS^+++ /BSA) were added to block exposed plastic surfaces. Following a 2 hour incubation, the assay plates were washed with TBS^+++ using a 96 well plate washer. Logarithmic serial dilution of the test compound and controls were made starting at a stock concentration of 2 mM and using 2 nM biotinylated vitronectin in TBS^+++ /BSA as the diluent. This premixing of labeled ligand with test (or control) ligand, and subsequent transfer of 50 µL aliquots to the assay plate was carried out with a CETUS Propette robot; the final concentration of the labeled ligand was 1 nM and the highest concentration of test compound was 1.0×10^-4 M. The competition occurred for two hours after which all wells were washed with a plate washer as before. Affinity purified horseradish peroxidase labeled goat anti-biotin antibody was diluted 1:3000 in TBS^+++ /BSA and 125 µL were added to each well. After 30 minutes, the plates were washed and incubated with OPD/H2 O substrate in 100 mM/L Citrate buffer, pH 5.0. The plate was read with a microtiter plate reader at a wavelength of 450 nm and when the maximum-binding control wells reached an absoround bottomance of about 1.0, the final A450 were recorded for analysis. The data were analyzed using a macro written for use with the EXCEL spreadsheet program. The mean, standard deviation, and % CV were determined for duplicate concentrations. The mean A450 values were normalized to the mean of four maximum-binding controls (no competitor added)(B-MAX). The normalized values were subjected to a four parameter curve fit algorithm [Rodbard et al., Int.

[3] = 1 nM biotinylated human vitronectin, purified receptor, pH 7.4, 2 h competition, read-out: αv β3 IC50

| SMILES | IC50 [1] | IC50 [2, 3] | IC50 ([2]; positive control included on each plate, read-out: αv β3 antagonist IC50 of positive control) |
| --- | --- | --- | --- |
| O=C(O)CC(NC(=O)CNC(=O)c1cc(O)cc(NC2=NCC(O)CN2)c1)c1cc(Cl)cc(Br)c1O (racemic) [Example 1, (±) 3-bromo-5-chloro-2-hydroxy-β-[[2-[[[3-hydroxy-5-[(1,4,5,6-tetrahydro-5-hydroxypyrimidin-2-yl)amino]phenyl]carbonyl]amino]acetyl]amino]benzenepropanoic acid, trifluroacetate salt] | 310 nM | 0.88 nM | – |
| O=C(O)C[C@H](NC(=O)CNC(=O)c1cc(O)cc(NC2=NCC(O)CN2)c1)c1cc(Cl)cc(Br)c1O (stereo partly shown) [9 · HCl] | 226 nM | 0.82 nM | – |
| O=C(O)CC(NC(=O)CNC(=O)c1cc(O)cc(NC2=NCC(O)CN2)c1)c1cc(Cl)cc(Cl)c1O (stereo not shown) [Example 2] | 430 nM | 1.04 nM | – |
| O=C(O)CC(NC(=O)CNC(=O)c1cc(O)cc(NC2=NCC(O)CN2)c1)c1cc(Br)cc(I)c1O (stereo not shown) [Example 3] | 2440 nM | 23.7 nM | – |
| O=C(O)CC(NC(=O)CNC(=O)c1cc(O)cc(NC2=NCC(O)CN2)c1)c1cc(Br)cc(Cl)c1O (stereo not shown) [Example 4] | 575 nM | 2.02 nM | – |
| O=C(O)CC(NC(=O)CNC(=O)c1cc(O)cc(NC2=NCC(O)CN2)c1)c1cc(Cl)cc(I)c1O (stereo not shown) [Example 5] | 744 nM | 2.13 nM | – |
| O=C(O)CC(NC(=O)CNC(=O)c1cc(O)cc(NC2=NCC(O)CN2)c1)c1cc(Br)cc(Br)c1O (stereo not shown) [Example 6] | 919 nM | 6.46 nM | – |
| O=C(O)C[C@H](NC(=O)CNC(=O)c1cc(O)cc(N=C2NCC(O)CN2)c1)c1cc(Br)cc(Cl)c1O (stereo partly shown) [Example 7] | 262 nM | 1.01 nM | – |
| O=C(O)C[C@H](NC(=O)CNC(=O)c1cc(O)cc(N=C2NCC(O)CN2)c1)c1cc(Cl)cc(Cl)c1O (stereo partly drawn) [Example 8, (S) 3,5-dichloro-2-hydroxy-β-[[2-[[[3-hydroxy-5-[(1,4,5,6-tetrahydro-5-hydroxypyrimidin-2-yl)amino]phenyl]carbonyl]amino]acetyl]amino]-benzenepropanoic acid, monohydrochloride monohydrate] | 131 nM | 0.4 nM | – |
| O=C(O)C[C@H](NC(=O)CNC(=O)c1cc(O)cc(NC2=NCC(O)CN2)c1)c1cc(Cl)cc(Br)c1O (stereo partly drawn) [Example 9, (S) 3-bromo-5-chloro-2-hydroxy-β-[[2-[[[3-hydroxy-5-[(1,4,5,6-tetrahydro-5-hydroxypyrimidin-2-yl)amino]phenyl]carbonyl]amino]acetyl]amino]-benzenepropanoic acid, trifluoroacetate salt] | 388 nM | 0.37 nM | – |
| O=C(O)C[C@H](NC(=O)CNC(=O)c1cc(O)cc(NC2=NCC(O)CN2)c1)c1cc(Br)cc(Br)c1O (stereo partly shown) [Example 10] | 641 nM | 2.26 nM | – |
| O=C(O)C[C@H](NC(=O)CNC(=O)c1cc(O)cc(NC2=NCC(O)CN2)c1)c1cc(Br)cc(I)c1O (stereo partly shown) [Example 12] | 1060 nM | 9.59 nM | – |
| N=C(N)NCCCCC(=O)NCC(=O)NC(CC(=O)O)c1cccnc1 (stereo not drawn) [β-[[2-[[5-[(aminoiminomethyl)-amino]-1-oxopentyl]amino]-1-oxoethyl]amino]-3-pyridinepropanoic acid, reference compound] | – | – | 3 to 10 nM |
